Assays:
Settings in all cases: 48 h
NOMO1 [1] = experiment: cell viability relative to DMSO control; higher = less cytotoxic
How it was run: (§1)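 In 1536-well plates, 5 μl of leukemia cells were seeded per well: 500 cells/well for NOMO1 or SEM and 1000 cells/well for P12-Ichikawa. Each line had first been adapted for at least four passages in each medium. Library compounds in DMSO were pin-dosed at 11 threefold concentrations between 47 μM and 0.79 nM, and CellTiter-Glo One luminescence was read after 48 h at 37°C. Viability is a per-plate percentage relative to DMSO wells, with cell-free wells as background.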

P12-Ichikawa [2] = experiment: as above
How it was run: as §1

SEM cells [3] = experiment: as above
How it was run: as §1

NOMO1 [4] = experiment: AUC of viability dose-response curve (% viability x log10 dose units); higher = less sensitive
How it was run: (§2)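 Leukemia cells adapted to each medium were seeded in 1536-well plates (500 or 1000 cells/well). They were dosed with library compounds in DMSO at 11 threefold doses, 47 μM to 0.79 nM, for 48 h at 37°C. CellTiter-Glo One luminescence was normalised per plate to DMSO and cell-free wells. Area under the curve was integrated by trapezoidal rule over log10 doses on a four-parameter log-logistic fit; curves exceeding full viability were scaled and curves failing quality control removed.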

P12-Ichikawa [5] = experiment: as above
How it was run: as §2

SEM cells [6] = experiment: as above
How it was run: as §2

OC[C@@H](O)[C@@H](O)[C@H](O)[C@@H](O)CO
cell viability [%]
Settings	NOMO1 [1]	P12-Ichikawa [2]	SEM cells [3]
HPLM + 10% dialyzed FBS, 0.000781 µM	96.4	106	68.4
HPLM + 10% dialyzed FBS, 0.00234 µM	116	110	85.4
HPLM + 10% dialyzed FBS, 0.00702 µM	129	107	88.2
HPLM + 10% dialyzed FBS, 0.0211 µM	133	108	105
HPLM + 10% dialyzed FBS, 0.0632 µM	131	127	98.4
HPLM + 10% dialyzed FBS, 0.19 µM	131	127	101
HPLM + 10% dialyzed FBS, 0.569 µM	130	112	13.8
HPLM + 10% dialyzed FBS, 1.71 µM	132	112	60
HPLM + 10% dialyzed FBS, 5.12 µM	129	124	103
HPLM + 10% dialyzed FBS, 15.4 µM	123	114	97
HPLM + 10% dialyzed FBS, 46.1 µM	135	122	105
RPMI 5 mM glucose + 10% FBS, 0.000781 µM	106	116	102
RPMI 5 mM glucose + 10% FBS, 0.00234 µM	114	115	105
RPMI 5 mM glucose + 10% FBS, 0.00702 µM	108	122	103
RPMI 5 mM glucose + 10% FBS, 0.0211 µM	111	123	99.5
RPMI 5 mM glucose + 10% FBS, 0.0632 µM	130	136	113
RPMI 5 mM glucose + 10% FBS, 0.19 µM	109	126	111
RPMI 5 mM glucose + 10% FBS, 0.569 µM	107	132	11.4
RPMI 5 mM glucose + 10% FBS, 1.71 µM	110	141	110
RPMI 5 mM glucose + 10% FBS, 5.12 µM	114	130	112
RPMI 5 mM glucose + 10% FBS, 15.4 µM	112	135	116
RPMI 5 mM glucose + 10% FBS, 46.1 µM	114	139	108
RPMI 5 mM glucose + 10% dialyzed FBS, 0.000781 µM	102	109	104
RPMI 5 mM glucose + 10% dialyzed FBS, 0.00234 µM	112	109	97.4
RPMI 5 mM glucose + 10% dialyzed FBS, 0.00702 µM	99.5	120	119
RPMI 5 mM glucose + 10% dialyzed FBS, 0.0211 µM	111	109	97.3
RPMI 5 mM glucose + 10% dialyzed FBS, 0.0632 µM	113	123	108
RPMI 5 mM glucose + 10% dialyzed FBS, 0.19 µM	137	123	124
RPMI 5 mM glucose + 10% dialyzed FBS, 0.569 µM	122	117	12.5
RPMI 5 mM glucose + 10% dialyzed FBS, 1.71 µM	108	120	118
RPMI 5 mM glucose + 10% dialyzed FBS, 5.12 µM	135	126	133
RPMI 5 mM glucose + 10% dialyzed FBS, 15.4 µM	127	118	120
RPMI 5 mM glucose + 10% dialyzed FBS, 46.1 µM	131	127	113

AUC of viability dose-response curve
Settings	NOMO1 [4]	P12-Ichikawa [5]	SEM cells [6]
HPLM + 10% dialyzed FBS	465	452	401
RPMI 5 mM glucose + 10% FBS	472	453	472
RPMI 5 mM glucose + 10% dialyzed FBS	445	449	452

CCOC(=O)N1CCN(/[N+]([O-])=N/Oc2ccc([N+](=O)[O-])cc2C#N)CC1
cell viability [%]
Settings	NOMO1 [1]	P12-Ichikawa [2]	SEM cells [3]
HPLM + 10% dialyzed FBS, 0.000781 µM	118	97	85
HPLM + 10% dialyzed FBS, 0.00234 µM	99.3	106	88.8
HPLM + 10% dialyzed FBS, 0.00702 µM	109	108	86.5
HPLM + 10% dialyzed FBS, 0.0211 µM	110	107	91.4
HPLM + 10% dialyzed FBS, 0.0632 µM	135	106	120
HPLM + 10% dialyzed FBS, 0.19 µM	114	115	106
HPLM + 10% dialyzed FBS, 0.569 µM	117	113	109
HPLM + 10% dialyzed FBS, 1.71 µM	97.1	15.9	25.2
HPLM + 10% dialyzed FBS, 5.12 µM	39.5	9.82	15.3
HPLM + 10% dialyzed FBS, 15.4 µM	39.6	9.87	13.6
HPLM + 10% dialyzed FBS, 46.1 µM	36.1	9.31	9.4
RPMI 5 mM glucose + 10% FBS, 0.000781 µM	98.4	110	104
RPMI 5 mM glucose + 10% FBS, 0.00234 µM	97.4	115	108
RPMI 5 mM glucose + 10% FBS, 0.00702 µM	114	117	106
RPMI 5 mM glucose + 10% FBS, 0.0211 µM	105	110	109
RPMI 5 mM glucose + 10% FBS, 0.0632 µM	102	118	110
RPMI 5 mM glucose + 10% FBS, 0.19 µM	105	115	125
RPMI 5 mM glucose + 10% FBS, 0.569 µM	122	119	114
RPMI 5 mM glucose + 10% FBS, 1.71 µM	120	12.1	16
RPMI 5 mM glucose + 10% FBS, 5.12 µM	24.5	9.8	10.6
RPMI 5 mM glucose + 10% FBS, 15.4 µM	24.6	8.38	10.3
RPMI 5 mM glucose + 10% FBS, 46.1 µM	18.2	7.09	7.12
RPMI 5 mM glucose + 10% dialyzed FBS, 0.000781 µM	92.8	103	106
RPMI 5 mM glucose + 10% dialyzed FBS, 0.00234 µM	106	101	92.3
RPMI 5 mM glucose + 10% dialyzed FBS, 0.00702 µM	129	105	108
RPMI 5 mM glucose + 10% dialyzed FBS, 0.0211 µM	111	111	107
RPMI 5 mM glucose + 10% dialyzed FBS, 0.0632 µM	126	113	114
RPMI 5 mM glucose + 10% dialyzed FBS, 0.19 µM	115	108	117
RPMI 5 mM glucose + 10% dialyzed FBS, 0.569 µM	118	108	104
RPMI 5 mM glucose + 10% dialyzed FBS, 1.71 µM	108	16.4	22.4
RPMI 5 mM glucose + 10% dialyzed FBS, 5.12 µM	30.8	10.6	12.1
RPMI 5 mM glucose + 10% dialyzed FBS, 15.4 µM	24.6	9.71	12.2
RPMI 5 mM glucose + 10% dialyzed FBS, 46.1 µM	18.3	9.91	9.24

AUC of viability dose-response curve
Settings	NOMO1 [4]	P12-Ichikawa [5]	SEM cells [6]
HPLM + 10% dialyzed FBS	390	328	331
RPMI 5 mM glucose + 10% FBS	383	324	327
RPMI 5 mM glucose + 10% dialyzed FBS	382	328	331
